“Also recorded” adds a separate entry of the source.
Experiments:
[1] = test system: stage IV melanoma patients; assay: Clinical course of vaccinated melanoma patients; type: in vivo, human; parameters: key to Clinical response: PD = Progressive disease; SD = Stable disease; PR = Partial response; CR = Complete response
Experimental: (§1) A comparison of the patients studied in Example 4 was carried out. In brief, seven patients were identified as clinical responders following a cancer diagnosis and vaccination with an hTERT vaccine. These patients were identified based on a combination of prolonged survival and clinical response. The clinical response could either be stable disease (SD), partial response (PR) or complete response (CR). The vaccinated melanoma patients were diagnosed with stage IV at the time of inclusion in the clinical trial, but had no brain metastases. Lung cancer patient P5 was diagnosed with stage IV, inoperable lung cancer and colon cancer patient P1 with late stage inoperable colon cancer. Lung cancer patient P6 was a stage IV lung cancer patient with a 12-week life expectancy. Pancreas cancer patient P1 had relapsed, inoperable pancreas cancer and a life expectancy of 8-10 months. Four of the patients (designated Melanoma P7-P8, Lung cancer P5 and Colon cancer P1) had each been vaccinated with the peptide GV1001 (SEQ ID NO. 10). The fifth patient (designated Lung cancer P6) and the sixth patient (designated Pancreas cancer 1) had been vaccinated with dendritic cells transfected with mRNA encoding hTERT. The seventh patient, Melanoma patient P9, had not been vaccinated at the time of the study and instead developed a spontaneous response following development of the cancer. (An eighth and final patient was also identified as a clinical responder but samples from this patient were not available for study.)
Six patients who were clinical non-responders following a melanoma cancer diagnosis and a GV1001 peptide (SEQ ID NO. 10) vaccination were studied. These patients were all stage IV melanoma patients and included in the same GV1001 vaccination trial as melanoma patients P7 and P8 who were long term survivors (see Example 6). […] Five of the patients also experienced progressive disease and one patient, designated Melanoma P3, experienced some stabilization of the disease but still had short survival. The proliferative T-cell responses of each patient to a series of peptides were determined in the same manner as in Example 1, at one time point. The peak response of each patient during the study period to peptide GV1001 is also shown which confirms that each patient responded immunologically to GV1001 vaccination.
(§2) The patients were classed as either clinical responders or clinical non-responders based on their clinical response which included stable disease (SD), tumour regression (PR or CR) and unexpectedly long survival time. Both clinical responders and clinical non-responders were selected from the same or similar vaccination trials.

[2] = test system: late stage inoperable colon cancer patient; assay: Clinical course of vaccinated colon cancer patient; type: in vivo, human; conditions: patient Colon ca P1
Experimental: as §1, §2

Sequence: EARPALLTSRLRFIPK (listed as Homo sapiens) [GV1001]
- Clinical Responder ([1]; patient Melanoma P1): No
- Clinical response ([1]; patient Melanoma P1): PD
- Survival (Months) ([1]; patient Melanoma P1): 10 Months
- Vaccine-specific T cell response at time-point tested ([1]; patient Melanoma P1): Yes
- Clinical Responder ([1]; patient Melanoma P2): No
- Clinical response ([1]; patient Melanoma P2): PD
- Survival (Months) ([1]; patient Melanoma P2): 9 Months
- Vaccine-specific T cell response at time-point tested ([1]; patient Melanoma P2): Yes
- Clinical Responder ([1]; patient Melanoma P3): No
- Clinical response ([1]; patient Melanoma P3): SD
- Survival (Months) ([1]; patient Melanoma P3): 10 Months
- Vaccine-specific T cell response at time-point tested ([1]; patient Melanoma P3): Yes
- Clinical Responder ([1]; patient Melanoma P4): No
- Clinical response ([1]; patient Melanoma P4): PD
- Survival (Months) ([1]; patient Melanoma P4): 8 Months
- Vaccine-specific T cell response at time-point tested ([1]; patient Melanoma P4): Yes
- Clinical Responder ([1]; patient Melanoma P5): No
- Clinical response ([1]; patient Melanoma P5): PD
- Survival (Months) ([1]; patient Melanoma P5): 12 Months
- Vaccine-specific T cell response at time-point tested ([1]; patient Melanoma P5): Yes
- Clinical Responder ([1]; patient Melanoma P6): No
- Clinical response ([1]; patient Melanoma P6): PD
- Survival (Months) ([1]; patient Melanoma P6): 8 Months
- Vaccine-specific T cell response at time-point tested ([1]; patient Melanoma P6): Yes
- Clinical Responder ([1]; patient Melanoma P7): Yes
- Clinical response ([1]; patient Melanoma P7): alive, PR
- Vaccine-specific T cell response at time-point tested ([1]; patient Melanoma P7): Yes
- Survival (Months) ([1]; patient Melanoma P7, + signifies that the patient is still alive): 65+ Months
- Clinical Responder ([1]; patient Melanoma P8): Yes
- Survival (Months) ([1]; patient Melanoma P8): 21 Months
- Vaccine-specific T cell response at time-point tested ([1]; patient Melanoma P8): Yes
- Clinical response ([1]; patient Melanoma P8, TTP = time to progression): increased; also recorded: TTP, PR
- Clinical Responder [2]: Yes
- Clinical response [2]: alive, CR
- Vaccine-specific T cell response at time-point tested [2]: Yes
- Survival (Months) ([2]; + signifies that the patient is still alive): 80+ Months
